Measured values published in ChEMBL document CHEMBL4507282, “Data for DCP probe BI-1950” (2021).

Legend:
[1] = target: Cyclin-dependent kinase 19 (Homo sapiens) (UniProt Q9BWU1); settings: Compound concentration 1000.0 nM
[2] = target: Serine/threonine-protein kinase 10 (Homo sapiens) (UniProt O94804); settings: Compound concentration 1000.0 nM
[3] = tested on: Receptor-type tyrosine-protein kinase FLT3 (Homo sapiens), P36888 [D835Y]; settings: Compound concentration 1000.0 nM
[4] = target: Ribosomal protein S6 kinase beta-1 (Homo sapiens) (UniProt P23443); settings: Compound concentration 1000.0 nM
[5] = target: Tyrosine-protein kinase FRK (Homo sapiens) (UniProt P42685); settings: Compound concentration 1000.0 nM
[6] = target: Non-receptor tyrosine-protein kinase TNK1 (Homo sapiens) (UniProt Q13470); settings: Compound concentration 1000.0 nM
[7] = tested on: Fibroblast growth factor receptor 3 (Homo sapiens), P22607 [G697C]; settings: Compound concentration 1000.0 nM
[8] = target: Serine/threonine-protein kinase RIO2 (Homo sapiens) (UniProt Q9BVS4); settings: Compound concentration 1000.0 nM
[9] = target: Serine/threonine-protein kinase Nek2 (Homo sapiens) (UniProt P51955); settings: Compound concentration 1000.0 nM
[10] = tested on: Epidermal growth factor receptor (Homo sapiens), P00533 [UNDEFINED MUTATION]; settings: Compound concentration 1000.0 nM
[11] = target: Mast/stem cell growth factor receptor Kit (Homo sapiens) (UniProt P10721); settings: Compound concentration 1000.0 nM
[12] = target: Casein kinase I isoform gamma-2 (Homo sapiens) (UniProt P78368); settings: Compound concentration 1000.0 nM
[13] = tested on: Phosphatidylinositol 4,5-bisphosphate 3-kinase catalytic subunit alpha isoform (Homo sapiens), P42336 [C420R]; settings: Compound concentration 1000.0 nM
[14] = tested on: Epidermal growth factor receptor (Homo sapiens), P00533 [L861Q]; settings: Compound concentration 1000.0 nM
[15] = target: Maternal embryonic leucine zipper kinase (Homo sapiens) (UniProt Q14680); settings: Compound concentration 1000.0 nM
[16] = target: Tyrosine-protein kinase Yes (Homo sapiens) (UniProt P07947); settings: Compound concentration 1000.0 nM
[17] = target: Misshapen-like kinase 1 (Homo sapiens) (UniProt Q8N4C8); settings: Compound concentration 1000.0 nM
[18] = target: Activin receptor type-1-like (Homo sapiens) (UniProt P37023); settings: Compound concentration 1000.0 nM
[19] = target: Wee1-like protein kinase 2 (Homo sapiens) (UniProt P0C1S8); settings: Compound concentration 1000.0 nM
[20] = target: Tyrosine-protein kinase ZAP-70 (Homo sapiens) (UniProt P43403); settings: Compound concentration 1000.0 nM
[21] = target: Serine/threonine-protein kinase WNK4 (Homo sapiens) (UniProt Q96J92); settings: Compound concentration 1000.0 nM
[22] = target: Mitogen-activated protein kinase 12 (Homo sapiens) (UniProt P53778); settings: Compound concentration 1000.0 nM
[23] = target: Histamine H2 receptor (Homo sapiens) (UniProt P25021); settings: Compound concentration 10.0 uM
[24] = tested on: Tyrosine-protein kinase ABL1 (Homo sapiens), P00519 [F317I]; settings: Compound concentration 1000.0 nM
[25] = target: Beta-adrenergic receptor kinase 1 (Homo sapiens) (UniProt P25098); settings: Compound concentration 1000.0 nM
[26] = target: Serine/threonine-protein kinase Nek10 (Homo sapiens) (UniProt Q6ZWH5); settings: Compound concentration 1000.0 nM
[27] = target: Fibroblast growth factor receptor 2 (Homo sapiens) (UniProt P21802); settings: Compound concentration 1000.0 nM
[28] = target: Casein kinase I isoform epsilon (Homo sapiens) (UniProt P49674); settings: Compound concentration 1000.0 nM
[29] = tested on: Mast/stem cell growth factor receptor Kit (Homo sapiens), P10721 [D816H]; settings: Compound concentration 1000.0 nM
[30] = target: Vascular endothelial growth factor receptor 2 (Homo sapiens) (UniProt P35968); settings: Compound concentration 1000.0 nM
[31] = target: RAC-beta serine/threonine-protein kinase (Homo sapiens) (UniProt P31751); settings: Compound concentration 1000.0 nM
[32] = target: Serine/threonine-protein kinase TBK1 (Homo sapiens) (UniProt Q9UHD2); settings: Compound concentration 1000.0 nM
[33] = target: Tyrosine-protein kinase Blk (Homo sapiens) (UniProt P51451); settings: Compound concentration 1000.0 nM
[34] = target: Mitogen-activated protein kinase 6 (Homo sapiens) (UniProt Q16659); settings: Compound concentration 1000.0 nM
[35] = target: Serine/threonine-protein kinase Nek11 (Homo sapiens) (UniProt Q8NG66); settings: Compound concentration 1000.0 nM
[36] = tested on: Tyrosine-protein kinase ABL1 (Homo sapiens), P00519 [F317L]; settings: Compound concentration 1000.0 nM
[37] = target: Receptor tyrosine-protein kinase erbB-4 (Homo sapiens) (UniProt Q15303); settings: Compound concentration 1000.0 nM
[38] = tested on: Mast/stem cell growth factor receptor Kit (Homo sapiens), P10721 [A829P]; settings: Compound concentration 1000.0 nM
[39] = target: Cyclin-dependent kinase 4 (Homo sapiens) (UniProt P11802); settings: Compound concentration 1000.0 nM
[40] = target: Rho-associated protein kinase 2 (Homo sapiens) (UniProt O75116); settings: Compound concentration 1000.0 nM
[41] = target: Dual specificity mitogen-activated protein kinase kinase 5 (Homo sapiens) (UniProt Q13163); settings: Compound concentration 1000.0 nM
[42] = target: Dual specificity tyrosine-phosphorylation-regulated kinase 1B (Homo sapiens) (UniProt Q9Y463); settings: Compound concentration 1000.0 nM
[43] = target: Serine/threonine-protein kinase SIK3 (Homo sapiens) (UniProt Q9Y2K2); settings: Compound concentration 1000.0 nM
[44] = target: Leucine-rich repeat serine/threonine-protein kinase 2 (Homo sapiens) (UniProt Q5S007); settings: Compound concentration 1000.0 nM
[45] = target: Serine/threonine-protein kinase RIO1 (Homo sapiens) (UniProt Q9BRS2); settings: Compound concentration 1000.0 nM

Fibroblast growth factor receptor 2 (Homo sapiens), sequence (P21802 22-821 limits assumed): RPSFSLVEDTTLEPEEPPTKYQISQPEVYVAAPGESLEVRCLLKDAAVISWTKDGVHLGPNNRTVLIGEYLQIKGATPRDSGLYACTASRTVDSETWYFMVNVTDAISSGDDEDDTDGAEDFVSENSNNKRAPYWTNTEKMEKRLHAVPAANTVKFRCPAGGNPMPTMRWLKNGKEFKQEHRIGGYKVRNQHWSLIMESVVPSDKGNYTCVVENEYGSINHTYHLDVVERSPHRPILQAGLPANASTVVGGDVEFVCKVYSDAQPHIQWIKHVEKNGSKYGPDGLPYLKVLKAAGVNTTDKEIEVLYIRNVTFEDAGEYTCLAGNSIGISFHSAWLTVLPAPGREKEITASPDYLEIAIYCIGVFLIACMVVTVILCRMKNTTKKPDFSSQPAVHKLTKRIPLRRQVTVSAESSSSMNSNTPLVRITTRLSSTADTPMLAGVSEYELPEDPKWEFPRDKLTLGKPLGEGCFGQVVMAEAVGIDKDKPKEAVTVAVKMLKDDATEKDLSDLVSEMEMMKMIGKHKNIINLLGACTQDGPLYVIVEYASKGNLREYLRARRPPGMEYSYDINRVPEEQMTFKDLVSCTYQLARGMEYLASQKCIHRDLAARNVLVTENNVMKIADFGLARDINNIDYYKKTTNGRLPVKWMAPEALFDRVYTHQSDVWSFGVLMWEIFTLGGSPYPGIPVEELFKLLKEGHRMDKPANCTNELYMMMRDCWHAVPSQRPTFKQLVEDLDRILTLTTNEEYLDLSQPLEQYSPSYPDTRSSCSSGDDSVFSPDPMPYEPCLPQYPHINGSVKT
Tyrosine-protein kinase Yes (Homo sapiens), sequence (P07947 2-543 limits assumed): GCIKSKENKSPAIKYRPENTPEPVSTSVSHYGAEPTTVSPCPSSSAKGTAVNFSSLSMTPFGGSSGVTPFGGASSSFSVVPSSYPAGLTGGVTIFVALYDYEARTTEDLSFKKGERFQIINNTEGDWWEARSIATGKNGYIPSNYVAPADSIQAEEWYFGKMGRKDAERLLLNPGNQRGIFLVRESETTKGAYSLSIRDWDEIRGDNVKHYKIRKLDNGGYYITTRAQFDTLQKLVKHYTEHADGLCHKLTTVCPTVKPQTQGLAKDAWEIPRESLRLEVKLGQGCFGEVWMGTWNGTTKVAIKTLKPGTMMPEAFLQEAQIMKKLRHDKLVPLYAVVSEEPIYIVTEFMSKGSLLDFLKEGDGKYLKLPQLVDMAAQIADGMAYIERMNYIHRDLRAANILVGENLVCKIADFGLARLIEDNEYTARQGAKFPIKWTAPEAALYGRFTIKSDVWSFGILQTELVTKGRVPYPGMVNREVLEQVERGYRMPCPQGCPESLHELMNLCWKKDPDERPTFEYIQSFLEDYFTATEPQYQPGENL
Wee1-like protein kinase 2 (Homo sapiens), sequence (P0C1S8 whole entry, looked up): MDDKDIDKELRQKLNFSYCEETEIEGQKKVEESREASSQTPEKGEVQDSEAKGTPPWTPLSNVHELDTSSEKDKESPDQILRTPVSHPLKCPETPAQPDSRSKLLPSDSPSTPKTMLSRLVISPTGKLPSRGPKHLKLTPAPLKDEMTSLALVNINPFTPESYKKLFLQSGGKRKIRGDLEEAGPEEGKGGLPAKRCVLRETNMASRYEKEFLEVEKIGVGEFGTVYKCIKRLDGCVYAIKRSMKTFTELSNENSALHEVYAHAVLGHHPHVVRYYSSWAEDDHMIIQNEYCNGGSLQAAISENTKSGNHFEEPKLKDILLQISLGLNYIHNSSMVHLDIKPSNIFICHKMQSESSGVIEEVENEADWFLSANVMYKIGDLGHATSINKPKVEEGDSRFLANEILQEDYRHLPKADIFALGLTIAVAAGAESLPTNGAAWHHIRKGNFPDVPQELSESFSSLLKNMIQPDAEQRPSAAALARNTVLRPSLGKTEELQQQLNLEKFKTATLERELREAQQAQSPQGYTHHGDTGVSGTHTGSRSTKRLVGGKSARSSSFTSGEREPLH
Serine/threonine-protein kinase TBK1 (Homo sapiens), sequence (Q9UHD2 whole entry): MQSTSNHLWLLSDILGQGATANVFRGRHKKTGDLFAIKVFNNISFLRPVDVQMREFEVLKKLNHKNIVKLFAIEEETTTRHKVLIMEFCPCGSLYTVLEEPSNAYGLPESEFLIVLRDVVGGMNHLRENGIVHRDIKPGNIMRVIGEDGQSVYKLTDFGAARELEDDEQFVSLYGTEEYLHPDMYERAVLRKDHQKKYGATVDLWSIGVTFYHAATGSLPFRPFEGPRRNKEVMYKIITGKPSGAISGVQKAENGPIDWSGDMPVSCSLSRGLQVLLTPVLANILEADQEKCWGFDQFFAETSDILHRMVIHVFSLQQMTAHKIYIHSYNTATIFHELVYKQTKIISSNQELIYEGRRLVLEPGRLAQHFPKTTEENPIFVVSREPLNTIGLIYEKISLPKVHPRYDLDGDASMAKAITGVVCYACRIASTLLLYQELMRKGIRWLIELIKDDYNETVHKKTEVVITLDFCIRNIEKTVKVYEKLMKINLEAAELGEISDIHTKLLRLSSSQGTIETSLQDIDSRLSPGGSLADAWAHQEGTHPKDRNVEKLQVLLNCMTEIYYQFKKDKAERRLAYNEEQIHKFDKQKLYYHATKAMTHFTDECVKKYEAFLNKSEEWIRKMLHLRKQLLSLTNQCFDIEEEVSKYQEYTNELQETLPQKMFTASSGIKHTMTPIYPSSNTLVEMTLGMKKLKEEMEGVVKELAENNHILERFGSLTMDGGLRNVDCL
Misshapen-like kinase 1 (Homo sapiens), sequence (Q8N4C8 whole entry, looked up): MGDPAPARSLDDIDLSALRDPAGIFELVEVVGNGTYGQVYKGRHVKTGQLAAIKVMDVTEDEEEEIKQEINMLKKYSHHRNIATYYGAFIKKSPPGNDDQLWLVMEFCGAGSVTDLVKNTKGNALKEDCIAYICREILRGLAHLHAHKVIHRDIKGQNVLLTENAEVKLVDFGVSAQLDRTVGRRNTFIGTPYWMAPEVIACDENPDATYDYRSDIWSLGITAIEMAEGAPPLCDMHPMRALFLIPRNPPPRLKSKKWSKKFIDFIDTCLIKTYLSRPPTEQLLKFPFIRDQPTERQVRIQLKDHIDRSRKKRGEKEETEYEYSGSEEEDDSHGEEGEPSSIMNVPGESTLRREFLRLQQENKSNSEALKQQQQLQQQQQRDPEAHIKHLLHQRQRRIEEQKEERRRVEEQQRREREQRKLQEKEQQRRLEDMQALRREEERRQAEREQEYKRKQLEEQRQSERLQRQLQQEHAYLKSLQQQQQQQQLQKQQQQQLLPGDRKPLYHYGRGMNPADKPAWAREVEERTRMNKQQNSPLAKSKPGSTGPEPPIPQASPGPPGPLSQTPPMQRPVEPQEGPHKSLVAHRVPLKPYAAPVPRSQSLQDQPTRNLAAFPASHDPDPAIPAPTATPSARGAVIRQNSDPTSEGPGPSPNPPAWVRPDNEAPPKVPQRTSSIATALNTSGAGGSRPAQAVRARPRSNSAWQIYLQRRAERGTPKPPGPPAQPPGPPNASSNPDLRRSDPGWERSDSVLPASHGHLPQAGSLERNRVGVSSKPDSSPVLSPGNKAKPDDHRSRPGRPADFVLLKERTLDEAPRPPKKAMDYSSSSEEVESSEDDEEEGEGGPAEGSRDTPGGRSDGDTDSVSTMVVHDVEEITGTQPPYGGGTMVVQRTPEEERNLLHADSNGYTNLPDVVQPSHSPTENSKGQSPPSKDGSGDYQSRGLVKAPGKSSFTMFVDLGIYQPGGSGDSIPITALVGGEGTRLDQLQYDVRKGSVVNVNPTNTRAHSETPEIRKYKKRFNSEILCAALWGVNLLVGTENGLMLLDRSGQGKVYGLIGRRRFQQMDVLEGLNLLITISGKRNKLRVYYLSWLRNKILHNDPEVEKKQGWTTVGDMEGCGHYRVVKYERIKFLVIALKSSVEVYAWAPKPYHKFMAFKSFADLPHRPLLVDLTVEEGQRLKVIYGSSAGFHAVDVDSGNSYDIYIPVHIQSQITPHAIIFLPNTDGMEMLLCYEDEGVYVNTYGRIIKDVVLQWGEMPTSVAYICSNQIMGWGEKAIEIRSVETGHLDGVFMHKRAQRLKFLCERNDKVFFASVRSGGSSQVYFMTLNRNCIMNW
Serine/threonine-protein kinase Nek11 (Homo sapiens), sequence (Q8NG66 whole entry): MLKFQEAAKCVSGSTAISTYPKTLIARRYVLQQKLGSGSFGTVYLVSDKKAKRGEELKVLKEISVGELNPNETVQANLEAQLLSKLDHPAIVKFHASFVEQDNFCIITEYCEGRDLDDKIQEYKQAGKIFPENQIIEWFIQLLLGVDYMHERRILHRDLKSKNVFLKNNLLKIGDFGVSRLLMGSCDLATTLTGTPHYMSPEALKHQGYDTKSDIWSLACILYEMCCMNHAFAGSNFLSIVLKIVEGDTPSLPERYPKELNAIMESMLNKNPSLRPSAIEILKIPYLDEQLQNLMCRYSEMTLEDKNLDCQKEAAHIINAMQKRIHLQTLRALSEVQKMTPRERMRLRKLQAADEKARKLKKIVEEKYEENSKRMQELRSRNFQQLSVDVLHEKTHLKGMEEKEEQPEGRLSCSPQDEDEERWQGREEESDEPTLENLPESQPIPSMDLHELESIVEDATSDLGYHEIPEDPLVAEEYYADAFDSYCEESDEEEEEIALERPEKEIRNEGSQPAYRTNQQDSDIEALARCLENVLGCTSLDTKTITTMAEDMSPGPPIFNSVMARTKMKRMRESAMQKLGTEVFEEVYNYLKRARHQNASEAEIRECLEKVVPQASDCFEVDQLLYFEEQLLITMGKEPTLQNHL
Casein kinase I isoform epsilon (Homo sapiens), sequence (P49674 whole entry, looked up, canonical isoform): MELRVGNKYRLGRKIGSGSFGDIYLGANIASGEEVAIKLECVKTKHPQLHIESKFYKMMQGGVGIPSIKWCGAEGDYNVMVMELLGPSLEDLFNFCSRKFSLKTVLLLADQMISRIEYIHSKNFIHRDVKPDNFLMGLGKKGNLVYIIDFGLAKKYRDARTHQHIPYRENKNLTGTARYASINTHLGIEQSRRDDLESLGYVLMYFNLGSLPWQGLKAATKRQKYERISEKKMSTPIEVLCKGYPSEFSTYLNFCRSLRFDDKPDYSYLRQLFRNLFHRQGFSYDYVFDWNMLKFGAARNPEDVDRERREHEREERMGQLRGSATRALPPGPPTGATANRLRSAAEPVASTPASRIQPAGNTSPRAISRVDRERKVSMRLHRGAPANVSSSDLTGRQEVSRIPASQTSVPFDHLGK

C[C@H](NC(=O)c1cnc2n1[C@](C)(Cc1ccc(C#N)cc1)C(=O)N2c1cc(Cl)c(F)c(Cl)c1)C(=O)NC1(c2ccccn2)CC1 [BI 1950]
inactive: residual activity [1] 81% | residual activity [2] 100% | residual activity [3] 100% | residual activity [4] 100% | residual activity [5] 68% | residual activity [6] 88% | residual activity [7] 100% | residual activity [8] 100% | residual activity [9] 95% | residual activity [10] 100% | residual activity [11] 91% | residual activity [12] 90% | residual activity [13] 93% | residual activity [14] 100% | residual activity [15] 86% | residual activity [16] 100% | residual activity [17] 100% | residual activity [18] 100% | residual activity [19] 100% | residual activity [20] 100% | residual activity [21] 100% | residual activity [22] 100% | inhibition [23] 11.8% | residual activity [24] 100% | residual activity [25] 100% | residual activity [26] 100% | residual activity [27] 100% | residual activity [28] 82% | residual activity [29] 100% | residual activity [30] 99% | residual activity [31] 100% | residual activity [32] 97% | residual activity [33] 98% | residual activity [34] 100% | residual activity [35] 100% | residual activity [36] 100% | residual activity [37] 100% | residual activity [38] 100% | residual activity [39] 100% | residual activity [40] 100% | residual activity [41] 100% | residual activity [42] 100% | residual activity [43] 76% | residual activity [44] 100% | residual activity [45] 100%

C[C@@]1(Cc2ccc(C#N)cc2)C(=O)N(c2cc(Cl)cc(Cl)c2)c2ncc(C(=O)NC3(c4nc(C5CCC5)no4)CC3)n21 [BI 9446]
inactive: residual activity [1] 76% | residual activity [2] 100% | residual activity [3] 100% | residual activity [4] 100% | residual activity [5] 81% | residual activity [6] 93% | residual activity [7] 100% | residual activity [8] 100% | residual activity [9] 83% | residual activity [10] 100% | residual activity [11] 98% | residual activity [12] 91% | residual activity [13] 89% | residual activity [14] 100% | residual activity [15] 89% | residual activity [16] 100% | residual activity [17] 100% | residual activity [18] 100% | residual activity [19] 100% | residual activity [20] 90% | residual activity [21] 100% | residual activity [22] 100% | inhibition [23] 11% | residual activity [24] 94% | residual activity [25] 100% | residual activity [26] 100% | residual activity [27] 100% | residual activity [28] 100% | residual activity [29] 100% | residual activity [30] 100% | residual activity [31] 100% | residual activity [32] 95% | residual activity [33] 100% | residual activity [34] 100% | residual activity [35] 100% | residual activity [36] 86% | residual activity [37] 100% | residual activity [38] 100% | residual activity [39] 93% | residual activity [40] 100% | residual activity [41] 100% | residual activity [42] 80% | residual activity [43] 98% | residual activity [44] 93% | residual activity [45] 100%
